# Source: ChEMBL document CHEMBL1201862, “PubChem BioAssay data set” (2004)
#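 All cell lines were grown in 96-well plates and treated with compound for 48 hours. Here, GI50 denotes the concentration required for 50% inhibition of growth.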 Activity calls are given as the source filed them. Cut-off read from the data, not from the text of the source: active = GI50 up to about 1.1 µM and inactive = higher.
# What was measured:
# Assay in all cases: inhibition of tumour cell growth, NCI panel, 48 h
# SF-295 = tested on: SF-295
# RPMI-8226 = tested on: RPMI-8226
# HOP-62 = tested on: HOP-62
# COLO 205 = tested on: COLO 205
# IGROV-1 = tested on: IGROV-1
# KM12 = tested on: KM12
# EKVX = tested on: EKVX
# HT-29 = tested on: HT-29
# HCT-15 = tested on: HCT-15
# OVCAR-5 = tested on: OVCAR-5
# HCC 2998 = tested on: HCC 2998
# A549 = tested on: A549
# LOX IMVI = tested on: LOX IMVI
# MCF7 = tested on: MCF7
# SN12C = tested on: SN12C
# PC-3 = tested on: PC-3
# NCI-H23 = tested on: NCI-H23
# SK-MEL-28 = tested on: SK-MEL-28
# MDA-N = tested on: MDA-N
# M14 = tested on: M14
# CCRF-CEM = tested on: CCRF-CEM
# U-251 = tested on: U-251
# ACHN = tested on: ACHN
# HCT-116 = tested on: HCT-116
# K562 = tested on: K562
# SW-620 = tested on: SW-620
# MDA-MB-435 = tested on: MDA-MB-435
# SK-MEL-2 = tested on: SK-MEL-2
# UO-31 = tested on: UO-31
# 786-0 = tested on: 786-0
# UACC-62 = tested on: UACC-62
# OVCAR-3 = tested on: OVCAR-3
# DU-145 = tested on: DU-145
# CAKI-1 = tested on: CAKI-1
# SK-MEL-5 = tested on: SK-MEL-5
# MOLT-4 = tested on: MOLT-4
# OVCAR-8 = tested on: OVCAR-8
smiles,measurement,setting,value
Cc1cc(N)c2ccccc2[n+]1CCCCCCCCCCNc1cc(C)[n+](CCCCCCCCCC[n+]2c(C)cc(N)c3ccccc32)c2ccccc12,GI50,SF-295,1320 nM (inactive)
same,GI50,RPMI-8226,352 nM (active)
same,GI50,HOP-62,929 nM (active)
same,GI50,COLO 205,375 nM (active)
same,GI50,IGROV-1,1350 nM (inactive)
same,GI50,KM12,618 nM (active)
same,GI50,EKVX,14600 nM (inactive)
same,GI50,HT-29,11600 nM (inactive)
same,GI50,HCT-15,1750 nM
same,GI50,OVCAR-5,1490 nM (inactive)
same,GI50,HCC 2998,759 nM (active)
same,GI50,A549,692 nM (active)
same,GI50,LOX IMVI,1790 nM (inactive)
same,GI50,MCF7,682 nM (active)
same,GI50,SN12C,293 nM (active)
same,GI50,PC-3,1020 nM (active)
same,GI50,NCI-H23,516 nM (active)
same,GI50,SK-MEL-28,528 nM (active)
same,GI50,MDA-N,333 nM (active)
same,GI50,M14,746 nM (active)
same,GI50,CCRF-CEM,520 nM (active)
same,GI50,U-251,406 nM (active)
same,GI50,ACHN,964 nM (active)
same,GI50,HCT-116,1350 nM (inactive)
same,GI50,K562,400 nM (active)
same,GI50,SW-620,2230 nM (inactive)
same,GI50,MDA-MB-435,427 nM (active)
same,GI50,SK-MEL-2,1410 nM (inactive)
same,GI50,UO-31,1860 nM (inactive)
same,GI50,786-0,547 nM (active)
same,GI50,UACC-62,608 nM (active)
same,GI50,OVCAR-3,1560 nM (inactive)
same,GI50,DU-145,1750 nM (inactive)
same,GI50,CAKI-1,34600 nM (inactive)
same,GI50,SK-MEL-5,439 nM (active)
same,GI50,MOLT-4,1010 nM (active)
same,GI50,OVCAR-8,1610 nM (inactive)
